In patent US8791102B2, “Acetanilide sphingosine-1-phosphate receptor antagonists” (Exelixis, Inc., priority 2008, dated 2014) one finds IC50 data, which are given here for 23 compounds.

For orientation: IC50 means the concentration that gives 50% inhibition.

The structures appear in SMILES notation.

In this assay the target is T1, human S1P1 receptors (Homo sapiens, UniProt P21453).
T1 construct: host or cells: HEK293
Description: S1P1R antagonist assay (fluorescent membrane potential dye, cAMP readout). It counts as cell-based. Conditions: HEK293 cells expressing human S1P1 receptors and CNG channel; 500 nM NECA; S1P1R agonist 10 nM; 90 minutes; read-out: EC50 or IC50 value. The text has this: The S1P1R antagonist assay is a fluorescent membrane potential dye measurement assay, indicative of intracellular cAMP changes due to G protein-coupled receptor activation. HEK293 cells engineered to express human S1P1 receptors and a cyclic nucleotide-gated (CNG) channel are obtained from BD Biosciences, 80300-250. The CNG channels are activated by elevated levels of cAMP, resulting in ion flux and cell membrane depolarization. Membrane depolarization is detected with a membrane potential dye. Stimulation of the cells with 5′-(N-ethylcarboxamido)adenosine (NECA), an A2b receptor agonist (Sigma, E2387), elicits an A2bR-dependent increase in cAMP.
Subsequent exposure of the cells to a S1P1R agonist suppresses the NECA induced increase in cAMP through S1P1R-specific signaling by inhibiting adenylyl cyclase and the formation of cAMP from ATP. The degree to which a test compound overcomes the S1P1R agonist suppression of the NECA induced increase in cAMP is a measure of S1P1R antagonist activity. Antagonist activity is quantified as the IC50 (i.e., the concentration needed to elicited one-half of the maximum response of the test compound) and/or as the EC50 (i.e., the concentration needed to elicited one-half of the NECA induced stimulation).
Day 1: Freshly thawed cells were plated into 384-well plates (Corning, 3683) at a density of 14,000 cells/well in 20 μL, complete media and incubated for 16 hours at 37° C., 5% CO2 and 99% relative humidity. Complete media included Dulbecco's modified Eagle's medium (Invitrogen, 11965-092), 10% Fetal bovine serum (Hyclone, SH30071.03), 250 μg/mL geneticin (Invitrogen, 10131-027), and 1 μg/mL Puromycin (Fluka, 82595).
Day 2: Membrane potential dye (20 μL, BD Biosciences, 341833) was added to each well and the plates were incubated for 2.5 hours at ambient temperature. Test compounds (20 μL) were added to the wells at various concentrations (≦10 μM, 1 to 3 dilutions) in a NECA base solution and incubated for 90 minutes in the presence of the S1P1R agonist {4-((4-phenyl-5-trifluoromethyl-2-thienyl)methoxy)benzyl}-3-azetidinecarboxylic acid (10 nM). The NECA-base solution contained Dulbecco's phosphate-buffered saline (Invitrogen, 14190-136), 2.5% DMSO (Fluka, 41648), 25 μM Ro 20-1724 (Sigma, B8279), and 500 nM NECA).
Assay plates were read with a PerkinElmer EnVision reader (Excitation 350 nm, Emission 590 nm) at time T=0 minutes, before compound addition and at time T=90 minutes. The signal was calculated as the ratio T90/T0. Data was analyzed in ActivityBase XE and graphs showing log of compound concentration (X-axis) vs. % activity (Y-axis) were generated for IC50 determinations. Percent activity was calculated with the following formula: (Signal−Agonist Control Signal)/(NECA Control Signal−Agonist Control Signal)×100.

T1 sequence (P21453 whole entry): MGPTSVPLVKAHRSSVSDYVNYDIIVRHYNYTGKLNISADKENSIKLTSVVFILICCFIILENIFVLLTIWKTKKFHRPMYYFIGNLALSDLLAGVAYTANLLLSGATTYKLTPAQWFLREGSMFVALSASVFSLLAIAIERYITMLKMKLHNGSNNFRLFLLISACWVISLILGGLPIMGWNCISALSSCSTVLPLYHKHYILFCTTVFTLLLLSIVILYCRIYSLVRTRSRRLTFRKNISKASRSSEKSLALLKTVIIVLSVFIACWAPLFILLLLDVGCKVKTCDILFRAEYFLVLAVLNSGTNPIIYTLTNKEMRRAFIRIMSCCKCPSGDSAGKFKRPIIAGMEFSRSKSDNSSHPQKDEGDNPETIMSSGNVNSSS

As for `O=C(CN1C(=O)CSC1=S)NC(COCc1ccccc1)C(=O)Nc1ccc(Oc2ccccc2)cc1` (centres unmarked) [Compound 335, N-(2-oxo-1-{[(phenylmethyl)oxy]methyl}-2-{[4-(phenyloxy)phenyl]amino}ethyl)-2-(4-oxo-2-thioxothiazolidin-3-yl)acetamide], the IC50 was greater than 1000 nM.
For the compound `O=C(CN1CCN(c2ccccn2)CC1)N[C@@H](COCc1ccccc1)C(=O)Nc1ccc(Oc2ccc(F)cc2)cc1` [Compound 126, (S)-3-(benzyloxy)-N-(4-(4-fluorophenoxy)phenyl)-2-(2-(4-(pyridin-2-yl)piperazin-1-yl)acetamido)propanamide], the IC50 is greater than 1000 nM.
To `O=C(Nc1ccc(Oc2ccc(F)cc2)cc1)[C@@H]1C[C@@H](Cc2ccccc2)CN1C(=O)CSc1ccncc1` [Compound 96, (2S,4R)-4-benzyl-N-(4-(4-fluorophenoxy)phenyl)-1-(2-(pyridin-4-ylthio)acetyl)pyrrolidine-2-carboxamide] belongs no more than 300 nM; to `O=C(Cc1cnc[nH]1)N[C@@H](COCc1ccccc1)C(=O)Nc1ccc(Oc2ccc(Cl)cc2)c(Cl)c1` [Compound 154, (S)-2-(2-(1H-imidazol-4-yl)acetamido)-3-(benzyloxy)-N-(3-chloro-4-(4-chlorophenoxy)phenyl)propanamide], no more than 300 nM; to `O=C(Cc1c[nH]cn1)N[C@@H](COCc1ccc(F)cc1)C(=O)Nc1ccc(Oc2ccc(Br)cc2)cc1` [Compound 168, (S)-2-(2-(1H-imidazol-5-yl)acetamido)-N-(4-(4-bromophenoxy)phenyl)-3-(4-fluorobenzyloxy)propanamide], no more than 300 nM.
To `O=C(Cn1nnc2ccccc21)N[C@@H](COCc1ccccc1)C(=O)Nc1ccc(Oc2ccc(F)cc2)cc1` [Compound 151, (S)-2-(2-(1H-benzo[d][1,2,3]triazol-1-yl)acetamido)-3-(benzyloxy)-N-(4-(4-fluorophenoxy)phenyl)propanamide] belongs no more than 300 nM; to `CC(C)(C(=O)N[C@@H](COCc1ccccc1)C(=O)Nc1ccc(Oc2ccc(F)cc2)cc1)c1c[nH]cn1` [Compound 213, (S)-2-(2-(1H-imidazol-4-yl)-2-methylpropanamido)-3-(benzyloxy)-N-(4-(4-fluorophenoxy)phenyl)propanamide], no more than 300 nM; to `CCCCC(CC)C(=O)NC(COCc1ccccc1)C(=O)Nc1ccc(Oc2ccccc2)cc1` (centres unmarked) [Compound 282, N-(3-(benzyloxy)-1-oxo-1-(4-phenoxyphenylamino)propan-2-yl)-2-ethylhexanamide], greater than 1000 nM.
For `O=C(Nc1ccc(Oc2ccccc2)cc1)C(COCc1ccccc1)NC(=O)C1(c2c(F)cccc2Cl)CCCC1` (centres unmarked) [Compound 329, 1-(2-chloro-6-fluorophenyl)-N-(2-oxo-1-{[(phenylmethyl)oxy]methyl}-2-{[4-(phenyloxy)phenyl]amino}ethyl)cyclopentanecarboxamide], the IC50 is greater than 1000 nM.
As to `O=C(Nc1ccc(Oc2ccc(F)cc2)cc1)[C@@H]1C[C@@H](Cc2ccccc2)CN1C(=O)C1CCOC1` (stereo partly drawn) [Compound 36, (2S,4R)-4-benzyl-N-(4-(4-fluorophenoxy)phenyl)-1-(tetrahydrofuran-3-carbonyl)pyrrolidine-2-carboxamide], the IC50 was no more than 300 nM.
For the compound `O=C(Cc1ccccn1)N[C@@H](COCc1ccccc1)C(=O)Nc1ccc(Oc2ccc(F)cc2)cc1` [Compound 246, (S)-3-(benzyloxy)-N-(4-(4-fluorophenoxy)phenyl)-2-(2-(pyridin-2-yl)acetamido)propanamide], the IC50 was no more than 300 nM.
To `O=C(CCC(=O)N1C[C@H](Cc2ccccc2)C[C@H]1C(=O)Nc1ccc(Oc2ccc(F)cc2)cc1)c1cccs1` [Compound 91, (2S,4R)-4-benzyl-N-(4-(4-fluorophenoxy)phenyl)-1-(4-oxo-4-(thien-2-yl)butanoyl)pyrrolidine-2-carboxamide] belongs no more than 300 nM; to `CC(C)CC(=O)N[C@@H](COCc1ccccc1)C(=O)Nc1ccc(Oc2ccc(F)cc2)cc1` [Compound 233, (S)—N-(3-(benzyloxy)-1-(4-(4-fluorophenoxy)phenylamino)-1-oxopropan-2-yl)-3-methylbutanamide], 300 to 1000 nM.
On to `O=C(NC(COCc1ccccc1)C(=O)Nc1ccc(Oc2ccccc2)cc1)c1ccc2cc[nH]c2c1` (centres unmarked) [Compound 187, N-(3-(benzyloxy)-1-oxo-1-(4-phenoxyphenylamino)propan-2-yl)-1H-indole-6-carboxamide], for which the IC50 lay in the range of 300 to 1000 nM.
To `O=C(Cc1c[nH]cn1)N[C@@H](COCc1ccccc1)c1nc2cc(Oc3ccc(F)cc3)ccc2[nH]1` [Compound 59, (R)—N-(2-(benzyloxy)-1-(5-(4-fluorophenoxy)-1H-benzo[d]imidazol-2-yl)ethyl)-2-(1H-imidazol-4-yl)acetamide] belongs 300 to 1000 nM; to `CS(=O)(=O)c1ccc(C(=O)NC(COCc2ccccc2)C(=O)Nc2ccc(Oc3ccccc3)cc2)cc1` (centres unmarked) [Compound 333, 4-(methylsulfonyl)-N-(2-oxo-1-{[(phenylmethyl)oxy]methyl}-2-{[4-(phenyloxy)phenyl]amino}ethyl)benzamide], greater than 1000 nM; to `CCN(CC)C1CCN(CC(=O)N[C@@H](COCc2ccccc2)C(=O)Nc2ccc(Oc3ccc(F)cc3)cc2)C1` (stereo partly drawn) [Compound 109, (2S)-3-(benzyloxy)-2-(2-(3-(diethylamino)pyrrolidin-1-yl)acetamido)-N-(4-(4-fluorophenoxy)phenyl)propanamide], greater than 1000 nM.
To `O=C(Nc1ccc(Oc2ccc(F)cc2)cc1)[C@@H]1C[C@@H](Cc2ccccc2Cl)CN1C(=O)Cn1cncn1` [Compound 57, (2S,4R)-1-(2-(1H-1,2,4-triazol-1-yl)acetyl)-4-(2-chlorobenzyl)-N-(4-(4-fluorophenoxy)phenyl)pyrrolidine-2-carboxamide] belongs no more than 300 nM; to `COc1cccc(N2CCN(CC(=O)N[C@@H](COCc3ccccc3)C(=O)Nc3ccc(Oc4ccc(F)cc4)cc3)CC2)c1` [Compound 42, (S)-3-(benzyloxy)-N-(4-(4-fluorophenoxy)phenyl)-2-(2-(4-(3-methoxyphenyl)piperazin-1-yl)acetamido)propanamide], greater than 1000 nM.
Take `O=C(Nc1ccc(Oc2ccc(F)cc2)cc1)[C@@H]1C[C@@H](Cc2ccc(F)cc2)CN1C(=O)Cn1ccnn1` [Compound 75, (2S,4R)-1-(2-(1H-1,2,3-triazol-1-yl)acetyl)-4-(4-fluorobenzyl)-N-(4-(4-fluorophenoxy)phenyl)pyrrolidine-2-carboxamide]: the IC50 is no more than 300 nM.
For `COc1ccc(OC)c(CCC(=O)NC(COCc2ccccc2)C(=O)Nc2ccc(Oc3ccccc3)cc2)c1` (centres unmarked) [Compound 382, N-(2-oxo-1-{[(phenylmethyl)oxy]methyl}-2-{[4-(phenyloxy)phenyl]amino}ethyl)-3-(2,5-dimethoxyphenyl)propanamide], the IC50 was greater than 1000 nM.
The result for `O=C(Cc1cnc[nH]1)N[C@@H](CCc1ccccc1)C(=O)Nc1ccc(Oc2ccc(Cl)cc2)cc1` [Compound 157, (S)-2-(2-(1H-imidazol-5-yl)acetamido)-N-(4-(4-chlorophenoxy)phenyl)-4-phenylbutanamide] reads no more than 300 nM.
For the compound `O=C(Nc1ccc(Oc2ccc(F)cc2)cc1)[C@@H]1C[C@@H](Cc2ccsc2)CN1C(=O)Cn1cncn1` [Compound 72, (2S,4R)-1-(2-(1H-1,2,4-triazol-1-yl)acetyl)-N-(4-(4-fluorophenoxy)phenyl)-4-(thiophen-3-ylmethyl)pyrrolidine-2-carboxamide], the IC50 is no more than 300 nM.
